Results taken from the supplement of paper PMC10307832.

Assays:
Assay in all cases: relative viability (nuclei count vs DMSO), 5 days (fraction); higher = more cells survive
[1] = compound: Cc1ccccc1C(C(=O)NC1CCCCC1)N(C(=O)Cn1ccnc1C)c1cccc(F)c1 [IDH-C35] + O=C(c1cc(Cc2n[nH]c(=O)c3ccccc23)ccc1F)N1CCN(C(=O)C2CC2)CC1 [Olaparib] (partner 8 µM)
Outline: (§1)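 Nuclei were stained with Hoechst during a one-step fixation (final 0.05% Triton X-100, 1% formaldehyde, 1 ug/ml Hoechst) carried out 5 days after dosing, then counted on 4× images. The cells, lung cancer lines in 1536-well plates, had been dosed by pin tool the day after seeding with one drug alone or a fixed anchor-drug dose plus five library-drug doses (not always all listed) in √10 steps. Relative viability is the nuclei count in treated wells divided by that in vehicle wells, and each value is the median of duplicate plates.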

[2] = compound: Cc1ccccc1C(C(=O)NC1CCCCC1)N(C(=O)Cn1ccnc1C)c1cccc(F)c1 [IDH-C35] + C[C@@H](Oc1cc(-c2cnn(C3CCNCC3)c2)cnc1N)c1c(Cl)ccc(F)c1Cl [Crizotinib] (partner 1 µM)
Outline: as §1

[3] = compound: CC1=C(C(=NN1)C)CC2=C(C3=C(S2)N(C(=O)N(C3=O)C)CC(C)C)C(=O)N4C[C@@H](CO4)O + Cc1nc(Nc2ncc(C(=O)Nc3c(C)cccc3Cl)s2)cc(N2CCN(CCO)CC2)n1 [Dasatinib] (partner 0.075 µM)
Outline: as §1

[4] = compound: CC1=C(C(=NN1)C)CC2=C(C3=C(S2)N(C(=O)N(C3=O)C)CC(C)C)C(=O)N4C[C@@H](CO4)O + CS(=O)(=O)CCNCc1ccc(-c2ccc3ncnc(Nc4ccc(OCc5cccc(F)c5)c(Cl)c4)c3c2)o1 [Lapatinib] (partner 2 µM)
Outline: as §1

Row | Cell Line | relative viability ([1]; first compound 0.08 µM) | relative viability ([1]; first compound 0.253 µM) | relative viability ([1]; first compound 0.8 µM) | relative viability ([1]; first compound 2.53 µM) | relative viability ([1]; first compound 8 µM) | relative viability ([2]; first compound 0.08 µM) | relative viability ([2]; first compound 0.253 µM) | relative viability ([2]; first compound 0.8 µM) | relative viability ([2]; first compound 2.53 µM) | relative viability ([2]; first compound 8 µM) | relative viability ([3]; first compound 0.0025 µM) | relative viability ([3]; first compound 0.007906 µM) | relative viability ([3]; first compound 0.025 µM) | relative viability ([3]; first compound 0.07906 µM) | relative viability ([3]; first compound 0.25 µM) | relative viability ([4]; first compound 0.0025 µM) | relative viability ([4]; first compound 0.007906 µM) | relative viability ([4]; first compound 0.025 µM) | relative viability ([4]; first compound 0.07906 µM) | relative viability ([4]; first compound 0.25 µM)
1 | LU99A | 0.254 | 0.247 | 0.291 | 0.259 | 0.248 | 0.585 | 0.612 | 0.587 | 0.578 | 0.539 | 0.584 | 0.502 | 0.533 | 0.508 | 0.462 | 1.22 | 0.982 | 0.9 | 0.975 | 1.11
2 | LXF-289 | 1.1 | 0.996 | 1.03 | 1.01 | 1.08 | 0.794 | 0.774 | 0.771 | 0.798 | 0.798 | 0.248 | 0.241 | 0.226 | 0.142 | 0.247 | 0.909 | 0.855 | 0.875 | 0.891 | 0.975
3 | NCI-H23 | 0.306 | 0.329 | 0.33 | 0.321 | 0.381 | 0.488 | 0.654 | 0.488 | 0.507 | 0.432 | 0.926 | 1.05 | 0.82 | 0.725 | 0.964 | 1.21 | 1.26 | 0.931 | 1.27 | 1.28
4 | NCI-H322M | 0.616 | 0.796 | 0.794 | 0.789 | 0.845 | 0.863 | 0.961 | 0.91 | 0.931 | 1.02 | 0.257 | 0.254 | 0.271 | 0.201 | 0.245 | 0.626 | 0.605 | 0.601 | 0.55 | 0.524
5 | NCI-H358 | 0.57 | 0.491 | 0.549 | 0.575 | 0.554 | 0.67 | 0.516 | 0.559 | 0.505 | 0.589 | 0.18 | 0.198 | 0.166 | 0.162 | 0.15 | 0.58 | 0.425 | 0.478 | 0.514 | 0.434
6 | NCI-H460 | 0.416 | 0.419 | 0.439 | 0.387 | 0.367 | 1 | 0.989 | 0.782 | 0.814 | 0.955 | 0.552 | 0.675 | 0.532 | 0.517 | 0.494 | 0.959 | 1.34 | 0.996 | 1.08 | 1.28
7 | NCI-H520 | 0.309 | 0.284 | 0.313 | 0.308 | 0.351 | 0.785 | 0.812 | 0.757 | 0.775 | 0.796 | 0.231 | 0.194 | 0.161 | 0.154 | 0.179 | 0.983 | 0.823 | 0.621 | 0.496 | 0.544
8 | NCI-H596 | 0.591 | 0.653 | 0.773 | 0.751 | 0.785 | 0.831 | 0.966 | 1.08 | 1.02 | 0.973 | 0.586 | 0.619 | 0.658 | 0.512 | 0.594 | 1.12 | 1.19 | 1.14 | 0.982 | 1.09
9 | NCI-H647 | 0.453 | 0.516 | 0.435 | 0.586 | 0.508 | 0.876 | 1.02 | 1.05 | 1.07 | 0.98 | 0.408 | 0.241 | 0.194 | 0.112 | 0.15 | 1.28 | 1.35 | 1.04 | 1.15 | 1.19
10 | NCI-H650 | 0.334 | 0.393 | 0.366 |  | 0.376 | 0.671 | 0.677 | 0.9 |  | 0.689 | 0.493 | 0.548 | 0.365 | 0.514 | 0.443 | 0.939 | 0.0037 | 0.753 | 0.893 | 0.956
11 | NCI-H661 | 0.758 | 0.743 | 0.738 | 0.71 | 0.688 | 0.969 | 0.973 |  | 0.975 | 0.971 | 0.907 | 0.833 | 0.906 | 0.881 | 0.872 | 0.523 | 0.649 | 0.464 | 0.623 | 0.493
12 | NCI-H727 | 0.633 | 0.873 | 0.705 | 0.7 | 0.717 | 0.853 | 0.734 | 0.826 | 0.916 | 0.954 | 0.293 | 0.416 | 0.501 | 0.292 | 0.396 | 1.17 | 0.857 | 0.781 | 0.569 | 0.869
13 | NCI-H838 | 0.797 | 0.787 | 0.779 | 0.785 | 0.745 | 0.834 | 0.787 | 0.812 | 0.77 | 0.799 | 0.347 | 0.322 | 0.276 | 0.197 | 0.304 | 1.03 | 1.06 | 0.907 | 0.778 | 0.96
14 | NCI-H1355 | 0.71 | 0.755 | 0.749 | 0.741 | 0.73 | 1.08 | 1.03 | 1.03 | 1.01 | 1.07 | 0.759 | 0.701 | 0.783 | 0.689 | 0.685 | 1.08 | 1.11 | 0.918 | 0.945 | 0.943
15 | NCI-H1437 | 0.61 | 0.649 | 0.609 | 0.619 | 0.602 | 0.979 | 0.913 | 0.907 | 0.874 | 0.796 | 0.393 | 0.409 | 0.314 | 0.488 | 0.434 | 0.925 | 0.981 | 0.738 | 0.795 | 0.922
16 | NCI-H1650 | 0.783 | 0.65 | 0.769 | 0.588 | 0.757 | 0.796 | 0.978 | 0.965 | 0.914 | 0.923 | 0.425 | 0.362 | 0.287 | 0.457 | 0.227 | 0.954 | 1.12 | 0.875 | 0.881 | 0.926
